Assay results as given in patent publication US12559474B2, “Triazine derivatives having virus replication inhibitory activity and pharmaceutical composition comprising the same” (priority 2021, dated 2026).
Like-named read-outs stand apart in the source and are kept apart here.

Tests used:
SARS-CoV-2 = experiment: microbe, parasite or virus in culture; assay type: cell-based; conditions: Severe acute respiratory syndrome coronavirus 2, VeroE6/TMPRSS2, 72 h, 50% SARS-CoV-2 infected cell death inhibitory concentration, VeroE6/TMPRSS2 cells, 3 days culture
SARS-CoV-2 3CL protease = SARS-CoV-2 3CL protease (Severe acute respiratory syndrome coronavirus 2, UniProt P0DTD1); experiment: biochemical; conditions: 50% SARS-CoV-2 3CL protease inhibitory concentration, read-out: IC50

SMILES	EC50 (SARS-CoV-2; class symbols) [nM]	IC50 (SARS-CoV-2 3CL protease; given as class symbols) [nM]	EC50 (SARS-CoV-2; CellTiter-Glo 2.0) [nM]	IC50 (SARS-CoV-2 3CL protease; RapidFire MS) [nM]
Cn1cc2cc(Nc3nc(=O)n(Cc4cc(Cl)c[nH]c4=O)c(=O)n3Cc3ccc(F)c(C#N)c3)c(Cl)cc2n1 [Compound I-0359]	1000 to 10000	< 100	–	–
Cc1cncc(-n2c(=O)nc(Nc3cc4cn(C)nc4cc3Cl)n(Cc3cc(F)ccc3F)c2=O)c1 [II-0199]	< 1000	< 100	–	–
COc1ccc(Nc2nc(=O)n(Cc3cc(Br)c[nH]c3=O)c(=O)n2Cc2cc(F)c(F)c(F)c2)cc1 [Compound I-0310]	1000 to 10000	< 100	–	–
Cc1cncc(-n2c(=O)nc(Nc3cc4sc(NCC(F)(F)F)nc4cc3Cl)n(Cc3ccc(F)c(C#N)c3)c2=O)c1 [II-0526]	1000 to 10000	< 100	–	–
Cn1cc(-c2ccnc(Cn3c(=O)nc(Nc4cc5cn(C)nc5cc4Cl)n(Cc4cc(F)c(F)cc4F)c3=O)c2)cn1 [II-0254]	1000 to 10000	< 100	–	–
Cc1cncc(-n2c(=O)nc(Nc3cc4cn(C)nc4cc3Cl)n(Cc3ccc(F)c(C#N)c3)c2=O)c1 [II-0378]	1000 to 10000	< 100	–	–
CNc1nc2cc(F)c(Nc3nc(=O)n(-c4cncc(C)c4)c(=O)n3Cc3ccc(F)c(C#N)c3)cc2s1 [II-0283]	< 1000	< 100	–	–
COc1ccc(Nc2nc(=O)n(-c3cncc(C)c3)c(=O)n2Cc2cc(F)c(F)c(F)c2)cc1 [Compound I-0374]	1000 to 10000	< 100	–	–
Cc1c2cc(Nc3nc(=O)n(Cc4ncn(C)n4)c(=O)n3Cc3cc(F)c(F)c(F)c3)c(Cl)cc2nn1C [II-0452]	1000 to 10000	< 100	–	–
CNc1nc2cc(Cl)c(Nc3nc(=O)n(-c4cncc(C)c4)c(=O)n3Cc3cc(C#N)c(F)cc3C)cc2o1 [II-0346]	< 1000	< 100	–	–
Cc1cncc(-n2c(=O)nc(N3CC4CCC3CC4)n(Cc3cc(F)c(F)c(F)c3)c2=O)c1 [II-0369]	–	–	1160	630
Cc1cncc(-n2c(=O)nc(Nc3ccc4nc(C)oc4c3)n(Cc3ccc(F)c(C#N)c3)c2=O)c1 [II-0105]	< 1000	< 100	–	–
COc1ccc(Nc2nc(=O)n(-c3cnnc(C)c3)c(=O)n2Cc2cc(F)c(F)c(F)c2)cc1 [II-0394]	–	–	44900	3900
CNc1nc2cc(Cl)c(Nc3nc(=O)n(-c4cncc(Cl)c4)c(=O)n3Cc3ccc(F)c(C#N)c3)cc2o1 [II-0516]	1000 to 10000	< 100	–	–
CCc1cc(OC)ccc1Nc1nc(=O)n(Cc2ccc[nH]c2=O)c(=O)n1Cc1cc(F)c(F)c(F)c1 [Compound I-0165]	1000 to 10000	< 100	–	–
CCCCn1cc2cc(Nc3nc(=O)n(Cc4ccc[nH]c4=O)c(=O)n3Cc3cc(F)c(F)c(F)c3)c(Cl)cc2n1 [Compound I-0286]	1000 to 10000	< 100	–	–
CNc1cncc(-n2c(=O)nc(Nc3cc4cn(C)nc4cc3Cl)n(Cc3cc(Cl)c(F)cc3F)c2=O)c1 [II-0599]	< 1000	< 100	–	–
Cn1cc2cc(Nc3nc(=O)n(Cc4ccccn4)c(=O)n3Cc3cc(F)c(F)cc3F)c(Cl)cc2n1 [II-0251]	< 1000	< 100	–	–
Cc1cncc(-n2c(=O)nc(Nc3cc4cn(CC(F)F)nc4cc3F)n(Cc3cc(F)c(F)c(F)c3)c2=O)c1 [II-0518]	1000 to 10000	< 100	–	–
Cc1cncc(-n2c(=O)nc(Nc3cc4cn(C)nc4cc3Cl)n(Cc3cc(F)cc(C#N)c3)c2=O)c1 [II-0161]	< 1000	< 100	–	–
Cc1nc2cc(Cl)c(Nc3nc(=O)n(Cc4ncn(C)n4)c(=O)n3Cc3cc(F)c(F)cc3F)cc2o1 [II-0326]	1000 to 10000	< 100	–	–
O=c1[nH]cccc1Cn1c(=O)nc(-c2ccccc2)n(Cc2cc(F)c(F)c(F)c2)c1=O [Compound I-0329]	–	–	5100	2000
Cc1nc(Cn2cc3cc(Nc4nc(=O)n(Cc5ccc[nH]c5=O)c(=O)n4Cc4cc(F)c(F)c(F)c4)c(Cl)cc3n2)no1 [II-0344]	1000 to 10000	< 100	–	–
COc1ccc(Nc2nc(=O)n(Cc3cscn3)c(=O)n2Cc2cc(F)c(F)c(F)c2)cc1 [II-0258]	–	–	7870	950
COc1cc(C)c(Nc2nc(=O)n(-c3cncc(C)c3)c(=O)n2Cc2ccc(F)c(C#N)c2)cn1 [II-0122]	1000 to 10000	< 100	–	–
Cc1cncc(-n2c(=O)nc(Nc3ccc4nc(NCC(F)(F)F)sc4c3)n(Cc3ccc(F)c(C#N)c3)c2=O)c1 [II-0298]	1000 to 10000	< 100	–	–
CCCc1cc(F)c(F)cc1Cn1c(Nc2cc3cn(C)nc3cc2Cl)nc(=O)n(-c2cncc(C)c2)c1=O [II-0069]	1000 to 10000	< 100	–	–
Cc1cncc(-n2c(=O)nc(N(C)C3CCCCC3)n(Cc3cc(F)c(F)c(F)c3)c2=O)c1 [II-0372]	–	–	6520	3400
CC(C)Nc1nc2cc(Cl)c(Nc3nc(=O)n(Cc4ncn(C)n4)c(=O)n3Cc3cc(F)c(F)cc3F)cc2s1 [II-0037]	1000 to 10000	< 100	–	–
